# Literature values as cited in patent US9730971B2 (priority 2008, dated 2017).
# How the values were obtained:
# Details in all cases: reported in Non Patent Literature 2
# [1] = system: Gram-positive bacteria such as Staphylococcos aureus, Streptococcus mutans, Bacillus subtilis, and Bacillus ammoniagenes
# [2] = system: Gram-negative bacteria such as Escherichia coli, Enterobacter aerogenes, and Pseudomonas aeruginosa
# [3] = system: fungi such as Saccharomyces cerevisiae, Candida utilis, and Penichillium chrysogenum
compound,measurement,setting,value
CCCCCCCCCCCCCCCc1cccc(O)c1C(=O)O [anacardic acid],antimicrobial action,[1],antimicrobial action
same,antimicrobial action,[2],no antimicrobial action
same,antimicrobial action,[3],no antimicrobial action
